Measured values as given in ChEMBL document CHEMBL4346677, “Compounds based on 5-(perylen-3-ylethynyl)uracil scaffold: High activity against tick-borne encephalitis virus and non-specific activity against enterovirus A” (Eur J Med Chem, 2019).
Converted amounts (≈) assume the structure as drawn. The source made the active and inactive calls. The calls are words filed in the database; no cut-off is given here.

Tests used:
[1] = Cytotoxicity against African green monkey Vero cells assessed as reduction in cell viability after 24 hrs by microscopic method; type: cell-based; settings: chlorocebus sabaeus
[2] = tested on: Tick-borne encephalitis virus; assay: Antiviral activity against TBEV Absettarov infected in PEK cells assessed as plaque reduction preincubated for 1 hr followed by overlaying with 1.26% methylcellulose and measured after 6 days by gentian violet staining-based assay; type: functional, organism-based
[3] = Cytotoxicity against African green monkey Vero cells assessed as reduction in cell viability after 7 days by microscopic method; type: cell-based; settings: chlorocebus sabaeus
[4] = Cytotoxicity against PEK cells assessed as reduction in cell viability after 24 hrs by microscopic method; type: cell-based, Sus scrofa; settings: pig
[5] = Cytotoxicity against PEK cells assessed as reduction in cell viability after 7 days by microscopic method; type: cell-based, Sus scrofa; settings: pig
[6] = Cytotoxicity against human RD cells assessed as reduction in cell viability after 24 hrs by microscopic method; type: cell-based
[7] = Cytotoxicity against human RD cells assessed as reduction in cell viability after 7 days by microscopic method; type: cell-based
Enterovirus A71 = assay: Antiviral activity against Enterovirus A71 isolate 46973 infected in human RD cells assessed as reduction in virus induced cytopathic effect preincubated with viral suspension for 1 hr followed by cell addition measured after 5 to 7 days; type: functional, organism-based
[8] = Solubility of compound in 15% DMSO by spectrophotometric analysis; type: physicochemical
[9] = Cytotoxicity against PEK cells assessed as formation of syncytium-like patterns of cells at 50 uM after 7 days by microscopic method; type: cell-based, Sus scrofa; settings: pig, 168 h
Vero = assay: Cytotoxicity against African green monkey Vero cells assessed as formation of syncytium-like patterns of cells at 50 uM after 7 days by microscopic method; type: cell-based; settings: chlorocebus sabaeus, 168 h
RD = assay: Cytotoxicity against human RD cells assessed as formation of syncytium-like patterns of cells at 50 uM after 7 days by microscopic method; type: cell-based; settings: 168 h
Poliovirus 1 = assay: Antiviral activity against poliovirus type 1 sabin 1; type: functional, organism-based
Echovirus = assay: Antiviral activity against Echovirus 30 isolate 48461; type: functional, organism-based
Human alphaherpesvirus 1 = assay: Antiviral activity against HSV-1 infected in African green monkey Vero cells preincubated with virus for 5 mins; type: functional, organism-based; settings: Human alphaherpesvirus 1, Vero

Row | Structure (SMILES) | CC50 at 24 h [1] [µM] | EC50 [2] [µM] | CC50 at 168 h [3] [µM] | CC50 at 24 h [4] [µM] | CC50 at 168 h [5] [µM] | CC50 at 24 h [6] [µM] | CC50 at 168 h [7] [µM] | EC50 (Enterovirus A71) | solubility [8] [µM] | Activity [9] | Activity (Vero) | Activity (RD) | Activity (Poliovirus 1) | Activity (Echovirus) | EC50 (Human alphaherpesvirus 1) [µM]
1 | CC(C)(C)C(=O)OCn1c(=O)c(C#Cc2ccc3c4cccc5cccc(c6cccc2c63)c54)cn(CC(=O)NCCCCO)c1=O | > 50 | 0.00069 | > 50 | > 50 | > 50 | 19 | 38 | Not Active | 5.3 (≈ 3.34 µg/mL) | Toxic | Toxic | Toxic | inactive | inactive | 
2 | O=c1[nH]c(=O)n([C@H]2CC[C@@H](CO)O2)cc1C#Cc1ccc2c3cccc4cccc(c5cccc1c52)c43 |  |  |  |  |  |  |  |  |  |  |  |  |  |  | 0.087
3 | CC(C)(C)C(=O)OCn1c(=O)c(C#Cc2ccc3c4cccc5cccc(c6cccc2c63)c54)cn(CC(=O)NCCCCCO)c1=O | 32 | 0.0016 | > 50 | > 50 | > 50 | 19 | 10 | Not Active |  | Toxic | Toxic | Toxic | inactive | inactive | 
4 | O=C(Cn1cc(C#Cc2ccc3c4cccc5cccc(c6cccc2c63)c54)c(=O)[nH]c1=O)NCCCO | > 50 | 0.006 | > 50 | > 50 | > 50 | > 104 | > 104 | Not Active |  | Toxic | Toxic | Toxic | inactive | inactive | 
5 | CC(C)(C)C(=O)OCn1c(=O)c(C#Cc2ccc3c4cccc5cccc(c6cccc2c63)c54)cn(CC(=O)NC[C@H](O)C(C)(C)CO)c1=O | > 50 | 0.00079 | > 50 | > 50 | > 50 | 19 | 19 | Not Active |  | Toxic | Toxic | Toxic | inactive | inactive | 
6 | CC(C)(C)C(=O)OCn1c(=O)c(C#Cc2ccc3c4cccc5cccc(c6cccc2c63)c54)cn(CC(=O)NCCO)c1=O | 32 | 0.0021 | 38 | > 50 | > 50 | 19 | 38 | Not Active |  | Toxic | Toxic | Toxic | inactive | inactive | 
7 | CCCCNC(=O)Cn1cc(C#Cc2ccc3c4cccc5cccc(c6cccc2c63)c54)c(=O)n(COC(=O)C(C)(C)C)c1=O | > 50 | 0.054 | > 50 | > 50 | > 50 | 38 | 10 | Not Active |  | Toxic | Toxic | Toxic | inactive | inactive | 
